From patent US6555548B2, “Compounds for treating fibromyalgia and chronic fatigue syndrome” (Pharmacia & Upjohn Company, priority 2000, dated 2003)

melting point [°C] | SMILES
195 to 196 | CN[C@@H]1Cc2cccc3[nH]c(=S)n(c23)C1.O=C(O)/C=C\C(=O)O
210 to 213 | CN[C@@H]1Cc2cccc3[nH]c(=S)n(c23)C1
